Assay: gradient 5% acetonitrile 3 min, to 50% in 2 min, to 85% in 15 min, held 3 min, 100 µL/min
Details: column: Zorbax Extend-C18 2.1 x 50 mm; eluents: water / acetonitrile, 0.1% formic acid
Outline: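 A Zorbax Extend-C18 column (2.1 × 50 mm, 1.8 μm) run at 100 μL/min with water and acetonitrile, both containing 0.1% formic acid, separated mixtures of ~100 pure standards. The HPLC was coupled to a quadrupole time-of-flight mass spectrometer operated in positive and negative ionization mode, with dead and dwell volumes of 40 μL and 900 μL. Each retention time was taken from a computationally picked adduct peak that was then manually inspected.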

Compound | RP-LC retention time [s]
O=C(NCc1ccc(F)cc1F)C1CCCN(c2nc3ccsc3c(=O)n2Cc2ccccc2)C1 (configuration not stated) | 938
CCOC(=O)C(=O)Nc1ccc(SCc2nnc(-c3ccccc3C)o2)cc1 | 950
Cc1ccccc1-c1noc(C2CCCN2C(=O)NC2CCCCC2)n1 (configuration not stated) | 1020
CCc1ccc(-c2cc3c(=O)n(Cc4noc(CN5CCCC(C)C5)n4)ccn3n2)cc1 (configuration not stated) | 726
COc1ccc(NC(=O)N2CCC3(CC2)N=C(c2cccc(Cl)c2)C(=O)N3)c(OC)c1 | 856
CCN(CC)CCOc1ccccc1/C=C/c1noc2ccccc12 | 724
Nc1nnc(SCc2nnc(-c3ccc4c(c3)OCO4)o2)s1 | 630
CC(NC(=O)CCNc1c(-c2cccc(F)c2)nc2cnccn12)c1cccs1 (configuration not stated) | 728
Cc1cccc(S(=O)(=O)N2CCC(N3CCN(Cc4ccccc4)C(=O)C3=O)CC2)c1 | 838
COc1cc([C@H]2c3cc4c(cc3[C@@H](O)[C@H](CO)[C@H]2C(=O)Nc2ccccc2)OCO4)cc(OC)c1OC | 730
COC(=O)c1cc(S(=O)(=O)N2CCCC2C(=O)NCc2ccccc2)cn1C (configuration not stated) | 781
O=C(NCCN1CCOCC1)c1ccc(Nc2c(-c3ccccc3)nc3cnccn23)cc1 | 581
O=C(NC1CC1)[C@@H]1C[C@H](Oc2ccccc2)CN1C(=O)c1ccsc1 | 733
CCOC(=O)C1=C(CN2CCN(C3CCCCC3)CC2)NC(=O)NC1c1ccccc1 (configuration not stated) | 658
CCSc1nnc(-c2nn(C)c3c2CN(C(=O)C2CCCCC2)CC3)n1C | 791
CCCn1nnc2cc(-c3noc(C4CC(=O)N(c5ccc(C)c(C)c5)C4)n3)ccc21 (configuration not stated) | 1020
CCCC(C)NC(=O)c1ccc2c(c1)CCCN2S(C)(=O)=O (configuration not stated) | 827
CCOc1cccc2c1OC1(C)CC2NC(=O)N1c1cccc(C(=O)NCc2ccccn2)c1 (configuration not stated) | 607
O=C(CCc1nnn2c1CN(C(=O)c1ccccc1F)CC2)NC1CC1 | 615
COCCN1C(=O)Cc2ccccc2C1C(=O)NCc1ccccc1Cl (configuration not stated) | 775
O=C(Cn1ccc2c(SCc3ccc(F)cc3)nccc21)NCc1ccc2c(c1)OCO2 | 744
COC(=O)c1ccsc1NC(=O)C1COCC(=O)N1Cc1ccccc1 (configuration not stated) | 786

Compound | RP-LC retention time [s]
CC(C)c1nncn1C1CCN(S(=O)(=O)c2ccccc2Cl)CC1 | 716
O=C(NC1CC1)c1nc2ccccn2c1-c1ccc(Cl)cc1 | 802
CN(C(=O)C1CCCN(c2ncnc3c2nc2n3CCCCC2)C1)c1ccccc1Cl (configuration not stated) | 846
CCc1ccc(NC(=O)C2(C)Oc3cccnc3NC2=O)cc1 (configuration not stated) | 770
Cc1ccc(C(C)NC(=O)C2CCN(c3cnc4nccnc4c3)CC2)c(C)c1 (configuration not stated) | 741
Cc1noc(C2CN(C(=O)NCc3cccc(F)c3)CC23CCOCC3)n1 (configuration not stated) | 706
COc1ccc(-n2/c(=N/C(=S)N(C)C)ss/c2=N\C(=S)N(C)C)cc1 | 1210
CCC(C)NC(=O)NCCc1nc2cccnc2n1Cc1ccccc1 (configuration not stated) | 685
COc1ccc(C)cc1NC(=O)NC1CCN(c2ccc(F)c(C)c2)C1=O (configuration not stated) | 914
Cc1cc(C(=O)N2CCCC2c2nncn2C(C)C)n[nH]1 (configuration not stated) | 579
COc1ccc(CNS(=O)(=O)c2cc(-c3nc(C(C)(C)C)cs3)cs2)cc1 | 1200
CCCN1CCN(C(=O)c2cn3ccnc(-c4ccccc4)c3n2)CC1 | 706
O=C(NCCN1CCOCC1)c1ccc(-c2ccc(N3CCCCC3)nc2)cc1 | 557
Cc1ccc(-c2ncccc2CNC(=O)c2ccco2)cc1 | 608
Cc1ccc(S(=O)(=O)N2CC(c3noc(C)n3)C3(CCOCC3)C2)c(C)c1 (configuration not stated) | 888
Cc1ccc(CNC(=O)C2(C)CN(S(C)(=O)=O)CC(=O)N2c2cccc(Cl)c2C)cc1 (configuration not stated) | 893
O=C(NCc1ccccc1Cl)C1CCN(c2cnc3nccnc3c2)CC1 | 769
OC[C@@H]1CN(Cc2ccco2)C[C@H]1c1nc(-c2ccncc2)no1 | 547
CC1(C(=O)NCc2ccc(Cl)cc2)CCCCC(=O)N1 (configuration not stated) | 704
COc1cc(OC)cc(C(=O)NC2CCN(c3cc(-c4ccc(F)cc4)[nH]n3)C2)c1 (configuration not stated) | 745
Cc1ccccc1-c1nc(Cn2ccnc2C)no1 | 555
CCn1cc(CN2CCC(C(=O)NC3CCCCCC3)CC2)c2cc(Cl)ccc21 | 777

Compound | RP-LC retention time [s]
CCNC(=O)C1CCN(C(=O)Nc2ccc(NC(=O)NCCC(C)C)cc2)CC1 | 662
Cc1ccc(C)c(N2CCN(S(=O)(=O)c3cc(-c4cc(C(F)(F)F)[nH]n4)sc3C)CC2)c1 | 1300
CCOC(=O)Cn1c(CN(C)Cc2ccccc2)nc2c1c(=O)n(C)c(=O)n2C | 643
Cn1nc(CNC(=O)c2ccccc2Br)c2ccccc21 | 757
CC1CCN(CCCNS(=O)(=O)c2ccccc2-c2nc(-c3ccccc3)no2)CC1 | 733
CSc1ccc(-c2noc(CN3C(=O)COc4cc(C)ccc43)n2)cc1 | 1130
CC1(C)NC(=O)N(CCC(=O)N2CCCn3nc(-c4ccc(F)cc4)cc3C2)C1=O | 683
CC(C)Cc1cc(-c2nn3c(Cc4ccccc4)nnc3s2)n[nH]1 | 910
CC(OC(=O)Nc1cccc(Cl)c1)C(=O)O (configuration not stated) | 809
CC(C)(C)C(=O)N1CCC(C(=O)N[C@@H]2CCCC[C@H]2NC(=O)c2ccc(F)cc2)CC1 | 698
Cn1cc(-c2cc3n(n2)CCC(=O)N3CC(=O)NCCC2=CCCCC2)c2ccccc21 | 891
O=C(Nc1ccc(OCc2nnc(-c3ccccc3)o2)cc1)c1ccc(Br)o1 | 936
COc1ccccc1CNC1=NCCNC12CCN(S(=O)(=O)c1ccccc1C)CC2 | 732
CCc1nc(-c2cc(S(=O)(=O)N3CCC(C(=O)Nc4ccc(OC)cc4)CC3)c(C)s2)no1 | 1000
O=S(=O)(NCc1nc(-c2ccc(-c3csc(C4CC4)n3)cc2)no1)c1ccc(Cl)cc1 | 1190
CN1C(=O)c2cc(S(=O)(=O)Nc3ccc(F)c(F)c3)ccc2Oc2cccnc21 | 910
Cc1cc(C)cc(C(=O)NC(c2ccccc2)c2nnc(N3CCCC3)o2)c1 (configuration not stated) | 868
Cc1cc(S(=O)(=O)N2CCN(c3nc4ccncc4n(C)c3=O)CC2)ccc1F | 682
CCOc1ccc2cccc(NC(=O)c3cc(C)oc3C)c2n1 | 1310
COc1ccc(-c2nnc(-c3ccccc3Cl)o2)cc1S(=O)(=O)N1CCCCC1 | 1060
CCCNC(=O)C1CCCN(c2ccc(SCC(=O)Nc3cc(F)ccc3Cl)nn2)C1 (configuration not stated) | 748
CCOc1ccccc1N1CCN(C(=O)CN2CCN(Cc3ccc(F)cc3)C2=O)CC1 | 833

Compound | RP-LC retention time [s]
Cc1nn(C)c(C)c1CCC(=O)NCCn1c(C)cnc1C1CCC1 | 547
Cc1ccc(CN2CCc3nc(N4CCN(c5ccccc5F)CC4)ncc3C2)cc1 | 824
Cc1noc(-c2cccc(OC3CN(C(=O)CN4C(=O)CCC4=O)C3)c2)n1 | 762
CCN1CCCn2cc(S(=O)(=O)Nc3ccc(F)cc3Cl)cc2C1=O | 738
CCS(=O)(=O)N1CC(=O)N(c2cc(C)ccc2C)C(C)(C(=O)NC2CCCCCC2)C1 (configuration not stated) | 951
COc1ccc(NS(=O)(=O)c2cc(-c3c(C)noc3NC(C)=O)ccc2OC)c(OC)c1 | 724
CC(C)n1c(=O)sc2cc(S(=O)(=O)N3CCC(C(=O)NCc4ccco4)CC3)ccc21 | 861
O=C(NCc1ccccc1OC(F)(F)F)c1ccc(OCC(=O)C2CC2)cc1 | 876
COc1ccc(S(=O)(=O)N2CCC(c3nc(C(=O)N4CCOCC4)c(C)o3)CC2)cc1 | 752
Cc1cc(C)cc(NC(=O)C2CCN(C(=O)c3ncn4c3COC(c3ccc(F)cc3)C4)CC2)c1 (configuration not stated) | 816
Cc1ccc(NS(=O)(=O)c2ccc3c(c2)C(=O)N(C)c2ncccc2O3)cc1C | 970
CCN1C(=O)COc2ccc(-c3noc(/C=C/c4ccc(OC)cc4)n3)cc21 | 1130
CCn1cc(CCNC(=O)CC2CCCC2)c2cccnc21 | 701
CCCNc1cc(N2CCC(CCC(=O)NCc3cccc(Cl)c3)CC2)ncn1 | 718
CCc1noc(NC(C)=O)c1-c1ccc(C)c(S(=O)(=O)Nc2c(C)cccc2C)c1 | 861
CCN(CC)C(=O)c1cnc2nc(C)ccc2c1Nc1ccc2c(c1)OCCO2 | 601
COc1cc(NC(=O)Cn2cnc3c(sc4nc(-c5ccccc5)ccc43)c2=O)cc(OC)c1 | 996
O=C(Nc1cnn(-c2ncncc2N2CCCC2)c1)c1ccc(C(F)(F)F)cc1 | 779
CC1=C(c2cccc(Cl)c2)S(=O)(=O)N=C1N1CCCN(C(=O)c2ccsc2)CC1 | 851
Cc1cccc2nc(-c3ccc(O)cc3)c(Nc3ccc4c(c3)OCCO4)n12 | 646
CC(NC(=O)CCc1ccc2[nH]ccc2c1)c1ccccc1 (configuration not stated) | 812

— the METLIN SMRT retention time set (Domingo-Almenara et al. 2019)
